# According to PubChem BioAssay (NCI):
#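 Cells were grown in 96-well plates and exposed to each compound for 48 hours at five concentrations; endpoints were interpolated linearly between bracketing concentrations, or set to the highest concentration if not reached. GI50 = concentration required for 50% inhibition of growth. Definition used: TGI = concentration required for complete inhibition of growth.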
# Columns and labels:
# Assay in all cases: NCI tumour cell line growth inhibition, 48 h
# 786-0 renal = tested on: 786-0 renal
# A498 renal = tested on: A498 renal
# A549 NSCLC = tested on: A549 NSCLC
# ACHN renal = tested on: ACHN renal
# BT-549 breast = tested on: BT-549 breast
# CAKI-1 renal = tested on: CAKI-1 renal
# CCRF-CEM leukemia = tested on: CCRF-CEM leukemia
# COLO 205 colon = tested on: COLO 205 colon
# DU-145 prostate = tested on: DU-145 prostate
# HCC-2998 colon = tested on: HCC-2998 colon
# HCT-116 colon = tested on: HCT-116 colon
# HCT-15 colon = tested on: HCT-15 colon
# HOP-62 NSCLC = tested on: HOP-62 NSCLC
# HOP-92 NSCLC = tested on: HOP-92 NSCLC
# HS 578T breast = tested on: HS 578T breast
# HT29 colon = tested on: HT29 colon
# IGROV1 ovarian = tested on: IGROV1 ovarian
# K-562 leukemia = tested on: K-562 leukemia
# KM12 colon = tested on: KM12 colon
# LOX IMVI melanoma = tested on: LOX IMVI melanoma
# M14 melanoma = tested on: M14 melanoma
# MALME-3M melanoma = tested on: MALME-3M melanoma
# MCF7 breast = tested on: MCF7 breast
# MDA-MB-231 breast = tested on: MDA-MB-231 breast
# MDA-MB-435 = tested on: MDA-MB-435
# MOLT-4 leukemia = tested on: MOLT-4 leukemia
# NCI-H226 lung = tested on: NCI-H226 lung
# NCI-H23 lung = tested on: NCI-H23 lung
# NCI-H460 lung = tested on: NCI-H460 lung
# NCI-H522 lung = tested on: NCI-H522 lung
# NCI/ADR-RES ovarian = tested on: NCI/ADR-RES ovarian
# OVCAR-3 ovarian = tested on: OVCAR-3 ovarian
# OVCAR-4 ovarian = tested on: OVCAR-4 ovarian
# OVCAR-5 ovarian = tested on: OVCAR-5 ovarian
# OVCAR-8 ovarian = tested on: OVCAR-8 ovarian
# PC-3 prostate = tested on: PC-3 prostate
# RPMI-8226 leukemia = tested on: RPMI-8226 leukemia
# RXF 393 renal = tested on: RXF 393 renal
# SF-268 CNS = tested on: SF-268 CNS
# SF-295 CNS = tested on: SF-295 CNS
# SF-539 CNS = tested on: SF-539 CNS
# SK-MEL-2 melanoma = tested on: SK-MEL-2 melanoma
# SK-MEL-28 melanoma = tested on: SK-MEL-28 melanoma
# SK-MEL-5 melanoma = tested on: SK-MEL-5 melanoma
# SK-OV-3 ovarian = tested on: SK-OV-3 ovarian
# SN12C renal = tested on: SN12C renal
# SNB-19 CNS = tested on: SNB-19 CNS
# SNB-75 CNS = tested on: SNB-75 CNS
# SR leukemia = tested on: SR leukemia
# SW-620 colon = tested on: SW-620 colon
# T-47D breast = tested on: T-47D breast
# TK-10 renal = tested on: TK-10 renal
# U251 CNS = tested on: U251 CNS
# UACC-257 melanoma = tested on: UACC-257 melanoma
# UACC-62 melanoma = tested on: UACC-62 melanoma
# UO-31 renal = tested on: UO-31 renal
structure (smiles),measurement,setting,value
O=C(Nc1ccc(OCc2nnc(-c3ccc(Cl)cc3)o2)c(F)c1)Nc1ccc(Cl)c(Cl)c1,GI50,786-0 renal,12.5 µM
same,TGI,786-0 renal,42.7 µM
same,GI50,A498 renal,1.56 µM
same,TGI,A498 renal,21.9 µM
same,GI50,A549 NSCLC,6.07 µM
same,TGI,A549 NSCLC,47.1 µM
same,GI50,ACHN renal,4.95 µM
same,TGI,ACHN renal,62.6 µM
same,GI50,BT-549 breast,7.11 µM
same,TGI,BT-549 breast,29.7 µM
same,GI50,CAKI-1 renal,21.7 µM
same,TGI,CAKI-1 renal,> 100 µM
same,GI50,CCRF-CEM leukemia,7.09 µM
same,TGI,CCRF-CEM leukemia,68.6 µM
same,GI50,COLO 205 colon,6.94 µM
same,TGI,COLO 205 colon,> 100 µM
same,GI50,DU-145 prostate,5.07 µM
same,TGI,DU-145 prostate,21.3 µM
same,GI50,HCC-2998 colon,20.7 µM
same,TGI,HCC-2998 colon,> 100 µM
same,GI50,HCT-116 colon,5.01 µM
same,TGI,HCT-116 colon,> 100 µM
same,GI50,HCT-15 colon,15 µM
same,TGI,HCT-15 colon,> 100 µM
same,GI50,HOP-62 NSCLC,3.6 µM
same,TGI,HOP-62 NSCLC,19.5 µM
same,GI50,HOP-92 NSCLC,2.39 µM
same,TGI,HOP-92 NSCLC,8.27 µM
same,GI50,HS 578T breast,1.95 µM
same,TGI,HS 578T breast,8.53 µM
same,GI50,HT29 colon,6.24 µM
same,TGI,HT29 colon,> 100 µM
same,GI50,IGROV1 ovarian,12.2 µM
same,TGI,IGROV1 ovarian,52.3 µM
same,GI50,K-562 leukemia,3.77 µM
same,TGI,K-562 leukemia,> 100 µM
same,GI50,KM12 colon,16.5 µM
same,TGI,KM12 colon,> 100 µM
same,GI50,LOX IMVI melanoma,3.3 µM
same,TGI,LOX IMVI melanoma,13.2 µM
same,GI50,M14 melanoma,11.3 µM
same,TGI,M14 melanoma,> 100 µM
same,GI50,MALME-3M melanoma,2.76 µM
same,TGI,MALME-3M melanoma,8.77 µM
same,GI50,MCF7 breast,5.62 µM
same,TGI,MCF7 breast,> 100 µM
same,GI50,MDA-MB-231 breast,5.39 µM
same,TGI,MDA-MB-231 breast,41.1 µM
same,GI50,MDA-MB-435,9.55 µM
same,TGI,MDA-MB-435,> 100 µM
same,GI50,MOLT-4 leukemia,12.9 µM
same,TGI,MOLT-4 leukemia,53.1 µM
same,GI50,NCI-H226 lung,5.94 µM
same,TGI,NCI-H226 lung,56.1 µM
same,GI50,NCI-H23 lung,4.62 µM
same,TGI,NCI-H23 lung,20.6 µM
same,GI50,NCI-H460 lung,3.9 µM
same,TGI,NCI-H460 lung,25 µM
same,GI50,NCI-H522 lung,6.06 µM
same,TGI,NCI-H522 lung,52.1 µM
same,GI50,NCI/ADR-RES ovarian,10 µM
same,TGI,NCI/ADR-RES ovarian,41.3 µM
same,GI50,OVCAR-3 ovarian,10.7 µM
same,TGI,OVCAR-3 ovarian,35 µM
same,GI50,OVCAR-4 ovarian,2.99 µM
same,TGI,OVCAR-4 ovarian,14.1 µM
same,GI50,OVCAR-5 ovarian,22.5 µM
same,TGI,OVCAR-5 ovarian,> 100 µM
same,GI50,OVCAR-8 ovarian,8.56 µM
same,TGI,OVCAR-8 ovarian,> 100 µM
same,GI50,PC-3 prostate,6.16 µM
same,TGI,PC-3 prostate,29.9 µM
same,GI50,RPMI-8226 leukemia,10.7 µM
same,TGI,RPMI-8226 leukemia,56.6 µM
same,GI50,RXF 393 renal,6.78 µM
same,TGI,RXF 393 renal,24.2 µM
same,GI50,SF-268 CNS,7.58 µM
same,TGI,SF-268 CNS,35.8 µM
same,GI50,SF-295 CNS,3.63 µM
same,TGI,SF-295 CNS,19.5 µM
same,GI50,SF-539 CNS,6.92 µM
same,TGI,SF-539 CNS,27.7 µM
same,GI50,SK-MEL-2 melanoma,9.23 µM
same,TGI,SK-MEL-2 melanoma,37 µM
same,GI50,SK-MEL-28 melanoma,5.17 µM
same,TGI,SK-MEL-28 melanoma,28.6 µM
same,GI50,SK-MEL-5 melanoma,6.6 µM
same,TGI,SK-MEL-5 melanoma,45.4 µM
same,GI50,SK-OV-3 ovarian,9.09 µM
same,TGI,SK-OV-3 ovarian,40.6 µM
same,GI50,SN12C renal,11.3 µM
same,TGI,SN12C renal,> 100 µM
same,GI50,SNB-19 CNS,5.97 µM
same,TGI,SNB-19 CNS,45.5 µM
same,GI50,SNB-75 CNS,1.72 µM
same,TGI,SNB-75 CNS,4.88 µM
same,GI50,SR leukemia,2.09 µM
same,TGI,SR leukemia,7.57 µM
same,GI50,SW-620 colon,6.77 µM
same,TGI,SW-620 colon,67.9 µM
same,GI50,T-47D breast,2.83 µM
same,TGI,T-47D breast,26.5 µM
same,GI50,TK-10 renal,4.78 µM
same,TGI,TK-10 renal,22.9 µM
same,GI50,U251 CNS,4.08 µM
same,TGI,U251 CNS,25 µM
same,GI50,UACC-257 melanoma,10.6 µM
same,TGI,UACC-257 melanoma,> 100 µM
same,GI50,UACC-62 melanoma,5.84 µM
same,TGI,UACC-62 melanoma,39 µM
same,GI50,UO-31 renal,13.5 µM
same,TGI,UO-31 renal,49.3 µM
